{
  "source": "paper PMC4962924",
  "about": "(Chemistry (Weinheim an der Bergstrasse, Germany), 2016)",
  "origin": "cited, not measured here",
  "tested_on": "Hsp90",
  "conditions": "natural product C-terminal inhibitors; ref [25],[26]",
  "data": [
    {"smiles": "CO[C@H]1[C@H](OC(=O)c2ccc(C)[nH]2)[C@H](O)[C@@H](Oc2ccc3c(O)c(NC(=O)c4c[nH]c(C(=O)Nc5c(O)c6ccc(O[C@H]7OC(C)(C)[C@@H](OC)[C@H](OC(=O)c8ccc(C)[nH]8)[C@@H]7O)c(C)c6oc5=O)c4C)c(=O)oc3c2C)OC1(C)C", "note": "[coumermycin A1]", "values": [
      {"measurement": "IC50", "result": 70, "unit": "µM"}
    ]},
    {"smiles": "CO[C@@H]1[C@@H](OC(N)=O)[C@@H](O)[C@H](Oc2ccc3c(O)c(NC(=O)c4ccc(O)c(CC=C(C)C)c4)c(=O)oc3c2C)OC1(C)C", "note": "[novobiocin]", "values": [
      {"measurement": "IC50", "result": "[…]"}
    ]}
  ]
}
